Measured values reported in patent US6489098B1, “Means and methods for monitoring nucleoside reverse transcriptase inhibitor antiretroviral therapy and guiding therapeutic decisions in the treatment of HIV/AIDS” (ViroLogic, Inc., priority 1998, dated 2002).

Tests used:
[1] = system: HIV-1 RT mutant resistance test vector 41 + 62 + 69 + 75M + 210 + 215; test: Phenotypic susceptibility assay, site directed RTV 41 + 62 + 69 + 75M + 210 + 215; assay type: cell-based; conditions: RTV with 41 + 62 + 69 + 75M + 210 + 215; 1 replicate
Description: (§1) Resistance tests were carried out with resistance test vectors using two host cell types. Resistance test vector viral particles were produced by a first host cell (the resistance test vector host cell) that was prepared by transfecting a packaging host cell with the resistance test vector and the packaging expression vector. The resistance test vector viral particles were then used to infect a second host cell (the target host cell) in which the expression of the indicator gene is measured.
(§2) The resistance test vectors containing a functional luciferase gene cassette were constructed and host cells were transfected with the resistance test vector DNA. The resistant test vectors contained patient-derived reverse transcriptase and protease sequences that were either susceptible or resistant to the antiretroviral agents, such as nucleoside reverse transcriptase inhibitors, non-nucleoside reverse transcriptase inhibitors and protease inhibitors. The resistance test vector viral particles produced by transfecting the resistance test vector DNA into host cells, either in the presence or absence of protease inhibitors, were used to infect target host cells grown either in the absence of NRTI or NNRTI or In the presence of increasing concentrations of the drug. The amount of luciferase activIty produced in infected target host cells in the presence of drug was compared to the amount of luciferase produced in infected target host cells in the absence of drug. Drug resistance was measured as the amount of drug required to inhibit by 50% the luciferase activity detected in the absence of drug (Inhibitory concentration 50%, IC50). The IC50 values were determined by plotting percent drug inhibition vs. log 10 drug concentration.
(§3) Host cells were seeded in 10-cm-diameter dishes and were transfected several days after plating with resistance test vector plasmid DNA and the envelope expression vector. Transfections were performed using a calcium-phosphate precipitation procedure. The cell culture media containing the DNA precipitate was replaced with fresh medium, from one to 24 hours, after transfection. Cell culture media containing resistance test vector viral particles was harvested one to four days after transfection and was passed through a […] filter before being stored at −80° C. HIV capsid protein (p24) levels in the harvested cell culture media were determined by an EIA method as described by the manufacturer (SIAC; Frederick, Md.). Before infection, target cells (293 and 293/T) were plated in cell culture media. Control infections were performed using cell culture media from mock transfections (no DNA) or transfections containing the resistance test vector plasmid DNA without the envelope expression plasmid. One to three or more days after infectIon the media was removed and cell lysis buffer (Promega) was added to each well. Cell lysates were assayed for luciferase activity (FIG. 3). The inhibitory effect of the drug was determined using the following equation:
(§4) % luciferase inhibition=1−(RLUluc[drug]÷RLUluc)×100
(§5) where RLUluc [drug] is the relative light unit of luciferase activity in infected cells in the presence of drug and RLUluc is the Relative Light Unit of luciferase activity in infected cells in the absence of drug. IC50 values were obtained from the sigmoidal curves that were generated from the data by plotting the percent inhibition of luciferase activity vs. the log 10 drug concentration. The drug inhibition curves are shown in (FIG. 3).
(§6) Genotypic changes that are observed to correlate with changes in phenotypic patterns of drug susceptibility are evaluated by construction of resistance test vectors containing the specific mutation on a defined, wild-type (drug susceptible) genetic background. Mutations may be incorporated alone and/or in combination with other known drug resistance mutations that are thought to modulate the susceptibility of HIV to a certain drug or class of drugs. […]

[2] = system: HIV-1 RT mutant resistance test vector 41 + 210 + 215; test: Phenotypic susceptibility assay, site directed RTV 41 + 210 + 215; assay type: cell-based; conditions: RTV with 41 + 210 + 215; 3 replicates
Description: as §1, §2, §3, §4, §5, §6

[3] = system: HIV-1 RT mutant resistance test vector A62V+T69SSA; test: Phenotypic susceptibility assay, site directed RTV A62V+T69SSA; assay type: cell-based; conditions: RTV with 62 + 69 (A62V+T69SSA); 4 replicates
Description: as §1, §2, §3, §4, §5, §6

[4] = system: HIV-1 RT mutant resistance test vector A62V+T69SSA+V75I; test: Phenotypic susceptibility assay, site directed RTV A62V+T69SSA+V75I; assay type: cell-based; conditions: RTV with 62 + 69 + 751 (A62V, T69SSA, V75I); 1 replicate
Description: as §1, §2, §3, §4, §5, §6

[5] = system: HIV-1 RT mutant resistance test vector T69SSA; test: Phenotypic susceptibility assay, site directed RTV T69SSA; assay type: cell-based; conditions: RTV with T69SSA vs wild type RTV; 3 replicates
Description: as §1, §2, §3, §4, §5, §6

[6] = system: HIV-1 RT mutant resistance test vector M41L+A62V+T69SSA+M184V+T215Y; test: Phenotypic susceptibility assay, site directed RTV M41L+A62V+T69SSA+M184V+T215Y; assay type: cell-based; conditions: RTV with 41 + 62 + 69 + 184 + 215; 2 replicates
Description: as §1, §2, §3, §4, §5, §6

[7] = system: HIV-1 RT mutant resistance test vector 41 + 184 + 215; test: Phenotypic susceptibility assay, site directed RTV 41 + 184 + 215; assay type: cell-based; conditions: RTV with 41 + 184 + 215; 3 replicates
Description: as §1, §2, §3, §4, §5, §6

[8] = system: HIV-1 RT mutant resistance test vector 41 + 69 + 184 + 215; test: Phenotypic susceptibility assay, site directed RTV 41 + 69 + 184 + 215; assay type: cell-based; conditions: RTV with 41 + 69 + 184 + 215; 2 replicates
Description: as §1, §2, §3, §4, §5, §6

[9] = system: HIV-1 RT mutant resistance test vector M41L-T69SSA-T215Y-RTV; test: Phenotypic susceptibility assay, site directed RTV M41L+T69SSA+T215Y; assay type: cell-based; conditions: for effect on susceptibility (words): RTV with M41L+T69SSA+T215Y
Description: as §1, §2, §3, §4, §5, §6

[10] = system: HIV-1 RT mutant resistance test vector 41 + 215 (M41L and T215Y); test: Phenotypic susceptibility assay, site directed RTV 41 + 215; assay type: cell-based; conditions: RTV with 41 + 215; 4 replicates
Description: as §1, §2, §3, §4, §5, §6

[11] = system: HIV-1 RT mutant resistance test vector 41 + 62 + 69 + 75S + 210 + 215; test: Phenotypic susceptibility assay, site directed RTV 41 + 62 + 69 + 75S + 210 + 215; assay type: cell-based; conditions: RTV with 41 + 62 + 69 + 75S + 210 + 215; 1 replicate
Description: as §1, §2, §3, §4, §5, §6

[12] = system: HIV-1 RT mutant resistance test vector A62V; test: Phenotypic susceptibility assay, site directed RTV A62V; assay type: cell-based; conditions: RTV with A62V vs wild type RTV; 3 replicates
Description: as §1, §2, §3, §4, §5, §6

[13] = system: ZDV-resistant HIV isolates; conditions: cited from earlier work
[14] = system: HIV-1 RT mutant resistance test vector A62V-T69SSA-L74V-RTV; test: Phenotypic susceptibility assay, site directed RTV A62V-T69SSA-L74V; assay type: cell-based; conditions: RTV with 62 + 69 + 74V; 1 replicate
Description: as §1, §2
as §3, with “Cell lysates were assayed for luciferase activity (FIG. 3).” left out
as §4
as §5, with “The drug inhibition curves are shown in (FIG. 3).” left out

[15] = system: HIV-1 RT mutant resistance test vector A62V-T69SSA-T215Y-RTV; test: Phenotypic susceptibility assay, site directed RTV A62V-T69SSA-T215Y; assay type: cell-based; conditions: RTV with 62 + 69 + 215 (A62V, T69SSA, T215Y); 1 replicate
Description: as §1
(§7) The resistance test vectors containing a functional luciferase gene cassette were constructed and host cells were transfected with the resistance test vector DNA. […] The IC50 values were determined by plotting percent drug inhibition vs. log 10 drug concentration.
(§8) Host cells were seeded in 10-cm-diameter dishes and were transfected several days after plating with resistance test vector plasmid DNA and the envelope expression vector. […] HIV capsid protein (p24) levels in the harvested cell culture media were determined by an EIA method as described by the manufacturer (SIAC; Frederick, Md.). […] The inhibitory effect of the drug was determined using the following equation: […]

[16] = system: HIV-1 RT mutant resistance test vector M41L-T69SSA-T215Y-L210W-V75M-RTV; test: Phenotypic susceptibility assay, site directed RTV M41L+T69SSA+V75M+L210W+T215Y; assay type: cell-based; conditions: RTV with 41 + 69 + 75M + 210 + 215; 1 replicate
Description: as §1, §7, §8

[17] = system: HIV-1 RT mutant resistance test vector M41L-A62V-T69SSA-T215Y-RTV; test: Phenotypic susceptibility assay, site directed RTV M41L+A62V+T69SSA+T215Y; assay type: cell-based; conditions: RTV with 41 + 62 + 69 + 215; 3 replicates
Description: as §1, §2
as §3, with “Cell lysates were assayed for luciferase activity (FIG. 3).” left out
as §4
as §5, with “concentration.” for “concentration. The drug inhibition curves are shown in (FIG. 3).”
Mutations may be incorporated alone and/or in combination with other known drug resistance mutations that are thought to modulate the susceptibility of HIV to a certain drug or class of drugs. Mutations are introduced into the resistance test vector through any of the widely known methods for site-directed mutagenesis. In one embodiment of this invention the mega-primer PCR method for site-directed mutagenesis is used.

[18] = system: HIV-1 RT mutant resistance test vector M41L-A62V-T69SSA-T215Y-L210W-RTV; test: Phenotypic susceptibility assay, site directed RTV M41L+A62V+T69SSA+L210W+T215Y; assay type: cell-based; conditions: RTV with 41 + 62 + 69 + 210 + 215; 3 replicates
Description: as §1
as §2, with “Drug resistance was measured as the amount of drug required to inhibit by 50% the luciferase activity detected in the absence of drug (Inhibitory concentration 50%, IC50).” left out
as §8

[19] = system: HIV-1 RT mutant resistance test vector M41L-T69SSA-T215Y-L210W-RTV; test: Phenotypic susceptibility assay, site directed RTV M41L+T69SSA+L210W+T215Y; assay type: cell-based; conditions: RTV with 41 + 69 + 210 + 215; 3 replicates
Description: as §1
as §2, with “Drug resistance was measured as the amount of drug required to inhibit by 50% the luciferase activity detected in the absence of drug (Inhibitory concentration 50%, IC50).” left out
as §8

[20] = system: HIV with RT Lys65→Arg mutation; conditions: Lys65→Arg (K65R); cited from earlier work
[21] = system: AZT-resistant, 3TC-resistant and multi-drug resistant viruses; conditions: cited from earlier work
[22] = system: HIV with RT K70E mutation; conditions: in vitro selection; cited from earlier work

Nc1ccn([C@@H]2CS[C@H](CO)O2)c(=O)n1 [3TC, lamivudine]
Average fold reduction in susceptibility [1]: 18.41 fold | Average fold reduction in susceptibility [2]: 2.14 fold | Average fold reduction in susceptibility [3]: 2.89 fold | Average fold reduction in susceptibility [4]: 4.08 fold | Average fold reduction in susceptibility [5]: 3.20 fold | Average fold reduction in susceptibility [6]: >110 fold | Average fold reduction in susceptibility [7]: >110 fold | Average fold reduction in susceptibility [8]: >110 fold | Average fold reduction in susceptibility ([9]; RTV with 41 + 69 + 215 (M41L, T69SSA, T215Y), 2 replicates): 6.27 fold | Average fold reduction in susceptibility [10]: 1.89 fold | Average fold reduction in susceptibility [11]: 31.67 fold | Average fold reduction in susceptibility [12]: 0.54 fold

[N-]=[N+]=N[C@H]1C[C@H](n2ccc(=O)[nH]c2=O)O[C@@H]1CO [AZU, 3′-azido-2′,3′-dideoxyuridine]
cross-resistance of ZDV-resistant strains [13]: cross-resistance

CC(C)Nc1cccnc1N1CCN(C(=O)c2cc3cc(NS(C)(=O)=O)ccc3[nH]2)CC1 [DEL, delavirdine]
Average fold reduction in susceptibility [14]: 0.4 fold | Average fold reduction in susceptibility [15]: 0.3 fold | Average fold reduction in susceptibility [16]: 0.25 fold | effect on susceptibility (words) [9]: slight increase in susceptibility to DEL and NEV | Average fold reduction in susceptibility [17]: 0.2 fold | Average fold reduction in susceptibility [18]: 0.2 fold | Average fold reduction in susceptibility [19]: 0.13 fold

Cc1ccnc2c1NC(=O)c1cccnc1N2C1CC1 [NEV, nevirapine]
Average fold reduction in susceptibility [14]: 0.3 fold | Average fold reduction in susceptibility [15]: 0.6 fold | Average fold reduction in susceptibility [16]: 0.5 fold | effect on susceptibility (words) [9]: slight increase in susceptibility to DEL and NEV | Average fold reduction in susceptibility [17]: 0.8 fold | Average fold reduction in susceptibility [18]: 0.6 fold | Average fold reduction in susceptibility [19]: 0.42 fold

Nc1ncnc2c1ncn2CCOCP(=O)(O)O [adefovir]
fold increase in IC50 / reduction in susceptibility [20]: 16 fold | sensitivity of resistant viruses [21]: remain sensitive to adefovir | fold reduction in susceptibility [22]: 9 fold
